Converted amounts (≈) assume the structure as drawn. “And” between values parts separate entries of the source, which are not always exact repeats. Identical values can stand only once. Like-named read-outs stand apart in the source and are kept apart here.
Key:
[1] = test system: broad panel of human pathogens; experiment: MIC against the panel of pathogens; assay type: cell-based
Experimental: (§1) Luria-Bertani (LB) media (10 g/L tryptone, 10 g/L NaCl, 5 g/L yeast extract, pH 7.0) was used to grow all bacterial strains, except Streptococcus pyogenes. Streptococcus pyogenes was grown in Mueller-Hinton broth containing 5% (v/v) sheep blood. All bacterial cultures were grown at 37° C. All the E. coli strains were grown while shaking at 200 rpm, while clinical pathogens were incubated without shaking.
(§2) The MIC of all the strains was determined in LB media except Streptococcus pyogenes, which was grown in Mueller-Hinton media containing 5% (v/v) sheep blood. The micro-dilution method was utilized in 96-well clear flat-bottom plates (100 μL/well) according to the CLSI guidelines. All strains were grown at 37° C. for 16-18 hours in presence of various concentrations of compound. The MIC was determined by a visual inspection and experiments were performed in triplicate.

Klebsiella pneumoniae [2] = experiment: MBC and antibacterial mode; assay type: cell-based
Experimental: (§3) The antibacterial mode (i.e., bactericidal, bacteriostatic) was determined by calculating the quotient of the MBC and the MIC. Compounds with a quotient >4 are defined as bacteriostatic; if the quotient is lower than 4, compounds are defined as bactericidal. A micro-dilution protocol was used to perform MIC and MBC experiments in triplicate according to the CLSI guidelines. […] The total volume (100 μL) in the wells with no visual growth were plated on 1.5% (w/v) LB agar or 1.5% (w/v) Mueller-Hinton agar with 5% sheep blood and incubated for 22 hours at 37° C.

Acinetobacter baumannii [3] = experiment: MBC and antibacterial mode; assay type: cell-based
Experimental: as §3

Streptococcus pyogenes [4] = experiment: MBC and antibacterial mode; assay type: cell-based
Experimental: as §3

Salmonella typhimurium [5] = experiment: MBC and antibacterial mode; assay type: cell-based
Experimental: as §3

Morganella morganii [6] = experiment: MBC and antibacterial mode; assay type: cell-based
Experimental: as §3

Shigella boydii [7] = experiment: MBC and antibacterial mode; assay type: cell-based
Experimental: as §3

Staphylococcus aureus [8] = experiment: MBC and antibacterial mode; assay type: cell-based
Experimental: as §3

Edwardsiella tarda [9] = experiment: MBC and antibacterial mode; assay type: cell-based
Experimental: as §3

Pseudomonas aeruginosa [10] = experiment: MBC and antibacterial mode; assay type: cell-based
Experimental: as §3

Enterobacter aerogenes [11] = experiment: MBC and antibacterial mode; assay type: cell-based
Experimental: as §3

Vibrio cholerae [12] = experiment: MBC and antibacterial mode; assay type: cell-based
Experimental: as §3

[13] = test system: E. coli anucleate cell strain (SH3210); experiment: High throughput anucleate cell assay; assay type: cell-based, Escherichia coli; settings: screen of small molecule libraries
Experimental: Briefly, E. coli anucleate cell strain (SH3210; ΔtrpR5 his λ pXX747) is used in the assay. […] The anucleated cells thus appear fluorescent in the presence of a fluorescent substrate (e.g., DDOAG) for LacZ. The protocol is summarized as follows: • 1. Prepare overnight culture of E. coli anucleate cell strain (SH3210) from LB-ampicillin plates. • 2. Dilute starter culture 1:1000 with liquid LB treated with 50 mg/ml of ampicillin and incubate for approximately 2.5 hr at 37° C. until approximately 0.1 OD600. • 3. Split diluted culture into wells (200 μL) • i. […] Negative control: 1 μL of DMSO • 4. Incubate diluted culture with compounds for approximately 2.5 hr at 42° C. at 300 rpm in a clear plate. • 5. Incubate cultures on ice for approximately 10 min until condensation on the cover disappears. • 6. Measure absorbance at a wavelength of 595 nm. • 7. In a black 96-well plate, add 80 μL of Z-buffer (600 mM Na2HPO4, 40 mM NaH2PO4, 10 mM KCl, 0.1 MgSO4) to each well pre-loaded with the following reagents: • a. Cell lysis solution called Popculture™ (1:5 Popculture™ to buffer). Popculture™ is a buffered mixture of concentrated detergents. • b. […] Shake for 30 s and measure fluorescence at a wavelength of 659 nm. • 13. Normalize the fluorescence measurements by dividing by OD595.

Klebsiella pneumoniae [14] = experiment: MIC micro-dilution; assay type: cell-based
Experimental: as §1, §2

Acinetobacter baumannii [15] = experiment: MIC micro-dilution; assay type: cell-based
Experimental: as §1, §2

Streptococcus pyogenes [16] = experiment: MIC micro-dilution; assay type: cell-based; settings: Mueller-Hinton media containing 5% (v/v) sheep blood, 37° C., 16-18 hours
Experimental: as §1, §2

Salmonella typhimurium [17] = experiment: MIC micro-dilution; assay type: cell-based
Experimental: as §1, §2

Morganella morganii [18] = experiment: MIC micro-dilution; assay type: cell-based
Experimental: as §1, §2

Shigella boydii [19] = experiment: MIC micro-dilution; assay type: cell-based; settings: LB media, 37° C., 16-18 hours
Experimental: as §1, §2

Staphylococcus aureus [20] = experiment: MIC micro-dilution; assay type: cell-based
Experimental: as §1, §2

Edwardsiella tarda [21] = experiment: MIC micro-dilution; assay type: cell-based
Experimental: as §1, §2

Pseudomonas aeruginosa [22] = experiment: MIC micro-dilution; assay type: cell-based
Experimental: as §1, §2

Bacillus subtilis 168 = experiment: MIC micro-dilution; assay type: cell-based; settings: Bacillus subtilis, 168
Experimental: as §1, §2

Enterobacter aerogenes [23] = experiment: MIC micro-dilution; assay type: cell-based
Experimental: as §1, §2

Vibrio cholerae [24] = experiment: MIC micro-dilution; assay type: cell-based
Experimental: as §1, §2

Structure (SMILES): CCCCCCCCCOc1ccc2[nH]cc(CCN)c2c1 [Compound 1, 5-nonyloxytryptamine]
- MIC ([1]; Pseudomonas aeruginosa): 5 to 20 µM
- MIC ([1]; against the pathogens tested, except Pseudomonas aeruginosa, read-out: MIC): 3 to 12 µg/mL
- Antibacterial Mode (Klebsiella pneumoniae [2]): Bactericidal (if the quotient is lower than 4, compounds are defined as bactericidal)
- MBC (Klebsiella pneumoniae [2]): 6 µg/mL (≈ 19.8 µM)
- MBC/MIC (Klebsiella pneumoniae [2]): 1
- Antibacterial Mode (Acinetobacter baumannii [3]): Bactericidal (if the quotient is lower than 4, compounds are defined as bactericidal)
- MBC (Acinetobacter baumannii [3]): 6 µg/mL (≈ 19.8 µM)
- MBC/MIC (Acinetobacter baumannii [3]): 1
- Antibacterial Mode (Streptococcus pyogenes [4]): Bactericidal (if the quotient is lower than 4, compounds are defined as bactericidal)
- MBC (Streptococcus pyogenes [4]): 24 µg/mL (≈ 79.3 µM)
- MBC/MIC (Streptococcus pyogenes [4]): 1
- Antibacterial Mode (Salmonella typhimurium [5]): Bacteriostatic (Compounds with a quotient >4 are defined as bacteriostatic)
- MBC/MIC (Salmonella typhimurium [5]): 4
- MBC (Salmonella typhimurium [5]; Salmonella enterica): 24 µg/mL (≈ 79.3 µM)
- Antibacterial Mode (Morganella morganii [6]): Bactericidal (if the quotient is lower than 4, compounds are defined as bactericidal)
- MBC (Morganella morganii [6]): 24 µg/mL (≈ 79.3 µM)
- MBC/MIC (Morganella morganii [6]): 2
- Antibacterial Mode (Shigella boydii [7]): Bactericidal (if the quotient is lower than 4, compounds are defined as bactericidal)
- MBC (Shigella boydii [7]): 6 µg/mL (≈ 19.8 µM)
- MBC/MIC (Shigella boydii [7]): 1
- Antibacterial Mode (Staphylococcus aureus [8]): Bactericidal (if the quotient is lower than 4, compounds are defined as bactericidal)
- MBC (Staphylococcus aureus [8]): 6 µg/mL (≈ 19.8 µM)
- MBC/MIC (Staphylococcus aureus [8]): 2
- Antibacterial Mode (Edwardsiella tarda [9]): Bactericidal (if the quotient is lower than 4, compounds are defined as bactericidal)
- MBC (Edwardsiella tarda [9]): 12 µg/mL (≈ 39.7 µM)
- MBC/MIC (Edwardsiella tarda [9]): 2
- Antibacterial Mode (Pseudomonas aeruginosa [10]): Bacteriostatic (Compounds with a quotient >4 are defined as bacteriostatic)
- MBC (Pseudomonas aeruginosa [10]): 96 µg/mL (≈ 317 µM)
- MBC/MIC (Pseudomonas aeruginosa [10]): 4
- Antibacterial Mode (Enterobacter aerogenes [11]): Bacteriostatic (Compounds with a quotient >4 are defined as bacteriostatic)
- MBC/MIC (Enterobacter aerogenes [11]): >4
- MBC (Enterobacter aerogenes [11]; Klebsiella aerogenes): > 96 µg/mL
- Antibacterial Mode (Vibrio cholerae [12]): Bacteriostatic (Compounds with a quotient >4 are defined as bacteriostatic)
- MBC (Vibrio cholerae [12]): 24 µg/mL (≈ 79.3 µM)
- MBC/MIC (Vibrio cholerae [12]): 4
- hit in anucleate cell screen [13]: potent hit
- MIC (Klebsiella pneumoniae [14]): 6 µg/mL (≈ 19.8 µM)
- MIC (Klebsiella pneumoniae [14]; LB media, 37° C., 16-18 hours): 6.0 µg/mL (≈ 19.8 µM)
- MIC (Acinetobacter baumannii [15]): 6 µg/mL (≈ 19.8 µM)
- MIC (Acinetobacter baumannii [15]; LB media, 37° C., 16-18 hours): 6.0 µg/mL (≈ 19.8 µM)
- MIC (Streptococcus pyogenes [16]): 24 µg/mL (≈ 79.3 µM)
- MIC (Salmonella typhimurium [17]; Salmonella enterica, TYPHIMURIUM): 6 µg/mL (≈ 19.8 µM)
- MIC (Salmonella typhimurium [17]; Salmonella typhimurium, LB media, 37° C., 16-18 hours): 6.0 µg/mL (≈ 19.8 µM)
- MIC (Morganella morganii [18]): 12 µg/mL (≈ 39.7 µM)
- MIC (Shigella boydii [19]): 6.0 µg/mL (≈ 19.8 µM)
- MIC (Shigella boydii [19]; read-out: MIC): 6 µg/mL (≈ 19.8 µM)
- MIC (Staphylococcus aureus [20]): 3 µg/mL (≈ 9.92 µM)
- MIC (Staphylococcus aureus [20]; LB media, 37° C., 16-18 hours): 3.0 µg/mL (≈ 9.92 µM)
- MIC (Edwardsiella tarda [21]): 6 µg/mL (≈ 19.8 µM)
- MIC (Edwardsiella tarda [21]; LB media, 37° C., 16-18 hours): 6.0 µg/mL (≈ 19.8 µM)
- MIC (Pseudomonas aeruginosa [22]): 80 µM and 24 µg/mL
- MIC (Bacillus subtilis 168): 0.76 µg/mL (≈ 2.51 µM)
- MIC (Enterobacter aerogenes [23]; Enterobacter aerogenes, LB media, 37° C., 16-18 hours): 6.0 µg/mL (≈ 19.8 µM)
- MIC (Enterobacter aerogenes [23]; Klebsiella aerogenes): 6 µg/mL (≈ 19.8 µM)
- MIC (Vibrio cholerae [24]): 6 µg/mL (≈ 19.8 µM)
- MIC (Vibrio cholerae [24]; LB media, 37° C., 16-18 hours): 6.0 µg/mL (≈ 19.8 µM)
